Data reported in patent US12371428B2 (Exelixis, Inc., priority 2019, dated 2025).

Legend:
[1] = biological target: Human MET (residues 956-1390) (Homo sapiens (Human), UniProt P08581); assay: Human Met kinase assay, HTRF KinEase (Example D-2); assay type: biochemical; conditions: protocol of Example D-2 (other compounds); read-out: c-Met IC50
How it was run: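 HTRF KinEase assay on MET residues 956-1390 (0.1 ng/well) in buffer with 5 mM MgCl2, 1 mM DTT and 1 mM MnCl2, with biotinylated peptide substrate, ATP at Km, 10 compound concentrations and 3% DMSO final, run 40 min at room temperature. The […] signal was normalized to DMSO and to 1 μM reference compound, and IC50 came from a 4-parameter logistic fit.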

[2] = biological target: Mer (phospho-Mer, MERTK-transfected 293A cells) (Homo sapiens (Human), UniProt Q12866); assay: Mer autophosphorylation ELISA in transient transfected 293A cells (Example H); assay type: cell-based; conditions: cellular activity; Mer autophosphorylation ELISA in transient transfected 293A cells
How it was run: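 MERTK-transfected 293A; 8-pt dose, 1 h, serum-free, 0.3% DMSO. Cold lysis with orthovanadate and protease/phosphatase inhibitors. Phospho-Mer by DuoSet IC ELISA vs phospho-Mer standard. IC50: 4-PL fit; DMSO = 100%, reference inhibitor = 0%.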

[3] = biological target: Human KDR (residues 790-1356) (Homo sapiens (Human), UniProt P35968); assay: Human KDR kinase assay, HTRF KinEase (Example B-2); assay type: biochemical; conditions: protocol of Example B-2 (other compounds)
How it was run: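 Ten compound concentrations (3% DMSO final) were pre-plated, then KDR (790-1356) with biotinylated peptide in Mg/Mn/DTT buffer was added; ATP at Km (4.0 μM) started a 40 min room-temperature reaction. Detection used Eu-TK antibody and SA-XL665 in EDTA buffer; activity normalized to DMSO and reference inhibitor, IC50 by logistic fit.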

[4] = biological target: KDR (phospho-KDR, VEGF165-stimulated HUVEC cells) (Homo sapiens (Human), UniProt P35968); assay: KDR autophosphorylation ELISA in HUVEC cells (Example G); assay type: cell-based; conditions: cellular activity; KDR autophosphorylation ELISA in HUVEC cells
How it was run: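 Read-out: phospho-KDR in cell lysates by DuoSet IC ELISA, normalised between VEGF-stimulated DMSO wells (100%) and unstimulated wells (0%). Human endothelial cells were starved overnight in serum-free medium, exposed to compound for 1 h, and then pulsed with 100 ng/mL VEGF165 for 5 min.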

Sequence of Mer (phospho-Mer, MERTK-transfected 293A cells) (Q12866 21-999): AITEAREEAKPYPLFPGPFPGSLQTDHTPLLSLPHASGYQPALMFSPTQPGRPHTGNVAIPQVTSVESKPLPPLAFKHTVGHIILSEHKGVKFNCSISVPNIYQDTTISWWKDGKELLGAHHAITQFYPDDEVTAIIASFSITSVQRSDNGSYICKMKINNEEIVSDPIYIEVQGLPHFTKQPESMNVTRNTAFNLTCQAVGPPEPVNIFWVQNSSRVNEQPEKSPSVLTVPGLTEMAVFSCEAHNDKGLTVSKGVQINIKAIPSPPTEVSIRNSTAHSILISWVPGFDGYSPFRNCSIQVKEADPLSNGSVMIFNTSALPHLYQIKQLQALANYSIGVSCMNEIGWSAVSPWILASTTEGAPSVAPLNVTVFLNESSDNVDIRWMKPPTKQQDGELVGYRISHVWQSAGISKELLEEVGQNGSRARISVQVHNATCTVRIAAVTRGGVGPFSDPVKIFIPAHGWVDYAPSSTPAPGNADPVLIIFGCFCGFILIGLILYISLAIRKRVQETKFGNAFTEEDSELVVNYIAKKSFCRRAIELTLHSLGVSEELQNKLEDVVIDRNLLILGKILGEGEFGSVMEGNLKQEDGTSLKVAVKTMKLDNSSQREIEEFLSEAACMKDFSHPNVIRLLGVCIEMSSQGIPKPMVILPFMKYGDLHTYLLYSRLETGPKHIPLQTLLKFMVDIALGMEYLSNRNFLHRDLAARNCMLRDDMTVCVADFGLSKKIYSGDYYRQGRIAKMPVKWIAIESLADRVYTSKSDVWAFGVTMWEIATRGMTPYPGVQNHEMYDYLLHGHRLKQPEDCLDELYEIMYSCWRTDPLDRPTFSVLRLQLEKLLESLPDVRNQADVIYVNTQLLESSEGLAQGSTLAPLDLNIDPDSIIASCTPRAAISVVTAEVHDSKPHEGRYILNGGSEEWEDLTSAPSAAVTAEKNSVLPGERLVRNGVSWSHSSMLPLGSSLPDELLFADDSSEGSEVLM
Sequence of Human KDR (residues 790-1356) (P35968 790-1356): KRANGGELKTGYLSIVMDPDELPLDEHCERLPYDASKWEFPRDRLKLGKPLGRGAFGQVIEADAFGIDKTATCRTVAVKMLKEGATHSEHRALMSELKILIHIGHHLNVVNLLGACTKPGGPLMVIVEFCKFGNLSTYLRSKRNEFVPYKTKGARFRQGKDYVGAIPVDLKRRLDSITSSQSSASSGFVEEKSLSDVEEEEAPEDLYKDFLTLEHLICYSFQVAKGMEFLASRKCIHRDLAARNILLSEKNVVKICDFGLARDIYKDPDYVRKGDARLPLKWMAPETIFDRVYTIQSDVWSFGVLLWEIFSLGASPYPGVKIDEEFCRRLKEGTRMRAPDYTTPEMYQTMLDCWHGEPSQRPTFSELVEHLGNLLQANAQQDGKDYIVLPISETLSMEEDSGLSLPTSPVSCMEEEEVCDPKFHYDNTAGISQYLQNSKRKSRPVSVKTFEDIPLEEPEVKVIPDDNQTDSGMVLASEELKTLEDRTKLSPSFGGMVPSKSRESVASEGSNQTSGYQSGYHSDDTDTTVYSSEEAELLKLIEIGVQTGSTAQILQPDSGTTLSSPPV
Sequence of Human MET (residues 956-1390) (P08581 956-1390): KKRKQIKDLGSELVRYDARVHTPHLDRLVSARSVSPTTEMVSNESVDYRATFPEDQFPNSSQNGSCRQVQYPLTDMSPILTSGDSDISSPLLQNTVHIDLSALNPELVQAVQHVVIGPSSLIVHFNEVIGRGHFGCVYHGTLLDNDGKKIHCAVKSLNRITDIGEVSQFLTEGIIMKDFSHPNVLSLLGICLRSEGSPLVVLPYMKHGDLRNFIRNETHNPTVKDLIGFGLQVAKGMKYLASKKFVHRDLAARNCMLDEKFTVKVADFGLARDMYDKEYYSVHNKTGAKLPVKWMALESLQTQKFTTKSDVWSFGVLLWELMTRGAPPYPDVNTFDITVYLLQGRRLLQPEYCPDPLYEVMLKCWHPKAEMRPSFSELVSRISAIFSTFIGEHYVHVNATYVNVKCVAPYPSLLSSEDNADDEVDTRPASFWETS
Sequence of KDR (phospho-KDR, VEGF165-stimulated HUVEC cells) (P35968 20-1356): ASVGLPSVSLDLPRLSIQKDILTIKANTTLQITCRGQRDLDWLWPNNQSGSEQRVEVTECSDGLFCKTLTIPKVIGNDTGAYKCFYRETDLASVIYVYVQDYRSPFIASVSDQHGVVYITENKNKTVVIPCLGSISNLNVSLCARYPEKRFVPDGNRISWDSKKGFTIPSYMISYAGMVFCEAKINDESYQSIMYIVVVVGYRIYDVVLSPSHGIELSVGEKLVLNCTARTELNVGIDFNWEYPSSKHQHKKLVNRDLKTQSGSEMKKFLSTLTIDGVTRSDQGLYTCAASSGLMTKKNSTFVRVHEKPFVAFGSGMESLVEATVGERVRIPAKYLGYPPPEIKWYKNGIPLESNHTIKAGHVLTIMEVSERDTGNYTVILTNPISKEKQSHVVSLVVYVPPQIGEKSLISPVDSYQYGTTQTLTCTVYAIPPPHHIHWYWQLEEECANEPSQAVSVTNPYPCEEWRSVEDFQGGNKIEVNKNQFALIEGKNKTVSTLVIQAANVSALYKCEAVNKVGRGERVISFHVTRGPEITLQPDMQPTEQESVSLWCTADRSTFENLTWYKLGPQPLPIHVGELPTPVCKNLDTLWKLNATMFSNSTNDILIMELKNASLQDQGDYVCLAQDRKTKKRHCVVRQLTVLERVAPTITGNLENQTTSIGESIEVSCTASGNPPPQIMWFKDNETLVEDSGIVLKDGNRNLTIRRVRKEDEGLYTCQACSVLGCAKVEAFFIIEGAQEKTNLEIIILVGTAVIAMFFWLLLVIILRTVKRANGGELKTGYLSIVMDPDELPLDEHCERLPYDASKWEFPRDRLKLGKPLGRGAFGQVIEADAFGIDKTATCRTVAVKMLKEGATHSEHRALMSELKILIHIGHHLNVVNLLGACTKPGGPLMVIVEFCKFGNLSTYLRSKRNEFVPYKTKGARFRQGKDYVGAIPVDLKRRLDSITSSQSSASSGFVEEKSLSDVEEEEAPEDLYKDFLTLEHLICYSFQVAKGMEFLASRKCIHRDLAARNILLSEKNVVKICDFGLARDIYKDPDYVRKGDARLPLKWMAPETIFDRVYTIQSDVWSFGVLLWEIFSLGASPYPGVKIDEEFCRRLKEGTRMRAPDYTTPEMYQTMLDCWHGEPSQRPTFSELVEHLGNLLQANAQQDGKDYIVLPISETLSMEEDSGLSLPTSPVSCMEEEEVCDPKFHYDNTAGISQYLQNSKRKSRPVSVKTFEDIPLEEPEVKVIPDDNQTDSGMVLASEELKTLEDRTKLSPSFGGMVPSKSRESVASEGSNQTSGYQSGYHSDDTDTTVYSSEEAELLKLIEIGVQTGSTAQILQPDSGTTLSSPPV

SMILES | IC50 [1] [nM] | IC50 [2] [nM] | IC50 [3] [nM] | IC50 [4] [nM]
CCc1nc(C)c(-c2ccc(F)cc2C)c(O)c1C(=O)Nc1ccc(Oc2ccnc3cc(OC)cnc23)c(F)c1 [Compound 204, 2-Ethyl-N-[3-fluoro-4-[(7-methoxy-1,5-naphthyridin-4-yl)oxy]phenyl]-5-(4-fluoro-2-methylphenyl)-4-hydroxy-6-methylpyridine-3-carboxamide] | 100 to 300 | < 100 | 100 to 300 | < 100
COc1ccc2nccc(Oc3ccc(NC(=O)c4c(C)n(C)cc(-c5ccc(F)cc5)c4=O)cc3F)c2n1 [Compound 243, N-[3-Fluoro-4-[(6-methoxy-1,5-naphthyridin-4-yl)oxy]phenyl]-5-(4-fluorophenyl)-1,2-dimethyl-4-oxopyridine-3-carboxamide] | > 300 | < 100 | > 300 | > 300
CCc1nc(C)c(-c2ccc(F)cc2)c(O)c1C(=O)Nc1ccc(Oc2ccnc3cc(OC)cnc23)c(F)c1 [Compound 180, 2-Ethyl-N-[3-fluoro-4-[(7-methoxy-1,5-naphthyridin-4-yl)oxy]phenyl]-5-(4-fluorophenyl)-4-hydroxy-6-methylpyridine-3-carboxamide] | < 100 | < 100 | < 100 | < 100
COc1cnc2c(Oc3ccc(NC(=O)c4ccc(C)n(-c5ccc(F)cc5C)c4=O)cc3)ccnc2c1 [Compound 226, 1-(4-Fluoro-2-methylphenyl)-N-[4-[(7-methoxy-1,5-naphthyridin-4-yl)oxy]phenyl]-6-methyl-2-oxopyridine-3-carboxamide] | < 100 | < 100 | 100 to 300 | < 100
COCc1nc(C)c(-c2ccc(F)cc2)c(O)c1C(=O)Nc1ccc(Oc2ccnc3cc(OC)c(OC)nc23)cc1 [Compound 190, N-[4-[(6,7-Dimethoxy-1,5-naphthyridin-4-yl)oxy]phenyl]-5-(4-fluorophenyl)-4-hydroxy-2-(methoxymethyl)-6-methylpyridine-3-carboxamide] | < 100 | < 100 | < 100 | < 100
